Measured values from patent US4578468A, “Antibiotic LL-D42067β” (American Cyanamid Company, priority 1984, dated 1986).
Converted amounts (≈) assume the structure as drawn.

Key:
[1] = system: Acinetobacter calcoaceticus; assay: in vitro antimicrobial spectrum, agar plate dilution (MIC); format: cell-based; conditions: strain STFD 79-17, 18 hours, 35° C., Mueller-Hinton agar
Method: (§1) The in vitro antimicrobial spectrum of LL-D42067β was determined by the agar plate dilution method with Mueller-Hinton agar and an inoculum of each test organism of approximately 10^4 colony forming units delivered by the Steers replicating device. The minimal inhibitory concentration (MIC) in mcg/ml was defined as the lowest concentration of LL-D42067β that inhibited visible growth after 18 hours incubation at 35° C.

[2] = system: Candida albicans; assay: as above; format: cell-based; conditions: strain CA 300, 18 hours, 35° C., Mueller-Hinton agar
Method: as §1

[3] = system: Escherichia coli; assay: as above; format: cell-based; conditions: 35° C., Mueller-Hinton agar
Method: as §1

[4] = system: Mycobacterium smegmatis; assay: as above; format: cell-based; conditions: Mycolicibacterium smegmatis, ATCC607; strain ATCC 607; 18 hours, 35° C., Mueller-Hinton agar
Method: as §1

[5] = system: Saccharomyces cerevisiae; assay: as above; format: cell-based; conditions: strain Y 15, 18 hours, 35° C., Mueller-Hinton agar
Method: as §1

[6] = system: Staphylococcus aureus; assay: as above; format: cell-based; conditions: Mueller-Hinton agar
Method: as §1

[7] = system: Staphylococcus epidermidis; assay: as above; format: cell-based; conditions: ATCC12228, strain ATCC 12228, 18 hours, 35° C., Mueller-Hinton agar
Method: as §1

[8] = system: Streptococcus mutans; assay: as above; format: cell-based; conditions: 35° C., Mueller-Hinton agar
Method: as §1

[9] = system: gram-positive bacteria; assay: in vitro antimicrobial spectrum, summary; format: cell-based; conditions: summary of Table VI
Method: as §1

[10] = system: yeasts; assay: in vitro antimicrobial spectrum, summary; format: cell-based; conditions: summary of Table VI
Method: as §1

[11] = poultry; subject of a copending application; cited from earlier work

COc1c2c(c(O)c3c(=O)c4c(oc13)[C@@H](O)CC[C@@H]4O)-c1c3c(c4cc(C)[nH]c(=O)c4c1O)OCO[C@H]3C2 (relative stereo) [LL-D42067β]
MIC [1]: 512 µg/mL (≈ 982 µM)
MIC [2]: 512 µg/mL (≈ 982 µM)
MIC ([3]; ATCC25922, strain ATCC 25922, 18 hours): 512 µg/mL (≈ 982 µM)
MIC ([3]; strain No. 311, 18 hours): 512 µg/mL (≈ 982 µM)
MIC [4]: 512 µg/mL (≈ 982 µM)
MIC [5]: 512 µg/mL (≈ 982 µM)
MIC ([6]; 18 h, strain LL No. 45, 35° C.): 0.12 µg/mL (≈ 0.23 µM)
MIC ([6]; ATCC25923, 18 h, strain ATCC 25923, 35° C.): 0.25 µg/mL (≈ 0.479 µM)
MIC [7]: 0.25 µg/mL (≈ 0.479 µM)
MIC ([8]; ATCC27352, strain ATCC 27352-1, 18 hours): 0.25 µg/mL (≈ 0.479 µM)
MIC ([8]; strain BHI (b), 18 hours): 0.25 µg/mL (≈ 0.479 µM)
antibacterial activity (in words) [9]: active
activity against yeasts (in words) [10]: moderately active
anticoccidial effect (in words) [11]: effective
